This note sets out measurements from patent US20260184663A1, “INDENE COMPOUNDS, PHARMACEUTICAL COMPOSITIONS THEREOF, AND THEIR THERAPEUTIC APPLICATIONS” (NucMito Pharmaceuticals co. Ltd., priority 2022, published 2026).

Assay type in all cases: cell-based
In assay [1] the test system is MDA-MB-231 (breast cancer). Briefly: Antiproliferative activity (CCK-8 cell viability), MDA-MB-231. The settings on record: Homo sapiens, 72 h, read-out: Antiproliferative activity in cancerous cells, MDA-MB-231 (inhibition of cell growth); for inhibition at 3.3 µM: Compound concentration: 3.3 μM; for inhibition at 10 µM: Compound concentration: 10 μM; for inhibition at 30 µM: Compound concentration: 30 μM. The procedure, abridged: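 In this CCK-8 viability assay, MDA-MB-231 cells maintained in Dulbecco's modified Eagle's medium containing 10% fetal bovine serum were placed in 96-well plates (2,000-5,000 cells/well) and treated with compound for 72 h at 37° C. A 4 h incubation with 10 μL CCK-8 followed, plates were read at 450 nm, and viability was expressed against DMSO vehicle wells across replicates.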

Another assay concerns HepG2 (liver cancer). Briefly: Antiproliferative activity (CCK-8 cell viability), HepG2. The settings on record: Homo sapiens, 72 h, read-out: Antiproliferative activity in cancerous cells, HepG2 (inhibition of cell growth); for inhibition at 3.3 µM: Compound concentration: 3.3 μM; for inhibition at 10 µM: Compound concentration: 10 μM; for inhibition at 30 µM: Compound concentration: 30 μM. The procedure, abridged: (§1)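 Cells were seeded at 2,000-5,000/well (HeLa in MEM, HepG2 and SW480 in DMEM, A549 in F-12K, all with 10% FBS) and treated with compound at 3.3, 10 or 30 μM for 72 h at 37° C. CCK-8 was added for 4 h, absorbance was read at 450 nm, and viability was expressed relative to DMSO-treated wells.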

Another assay concerns SW480 (colon cancer). Briefly: Antiproliferative activity (CCK-8 cell viability), SW480. As to conditions: Homo sapiens, 72 h; for inhibition at 3.3 µM: Compound concentration: 3.3 μM; for inhibition at 10 µM: Compound concentration: 10 μM; for inhibition at 30 µM: Compound concentration: 30 μM. The procedure, abridged: as §1
Assay [2] deals with B16F10 (malignant melanoma). Description: Antiproliferative activity (CCK-8 cell viability), B16F10. As to conditions: Mus musculus, 72 h, read-out: Antiproliferative activity in cancerous cells, B16F10 (inhibition of cell growth); for inhibition at 3.3 µM: B16-F10, Compound concentration: 3.3 μM; for inhibition at 10 µM: B16-F10, Compound concentration: 10 μM; for inhibition at 30 µM: B16-F10, Compound concentration: 30 μM. The procedure, abridged:
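Attached B16F10 cells in 96-well plates were incubated with compound at 37° C for 72 h, followed by 10 μL CCK-8 reagent per well and a further 4 h incubation. A multi-well plate reader measured absorbance at 450 nm. Percent viability across replicates was calculated against DMSO vehicle-treated cells.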

Assay [3] deals with A431 (epidermoid carcinoma). Description: Antiproliferative activity (CCK-8 cell viability), A431. The settings on record: Homo sapiens, 72 h, read-out: Antiproliferative activity in cancerous cells, A431 (inhibition of cell growth); for inhibition at 3.3 µM: A-431, Compound concentration: 3.3 μM; for inhibition at 10 µM: A-431, Compound concentration: 10 μM; for inhibition at 30 µM: A-431, Compound concentration: 30 μM. The procedure, abridged:
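Cell viability of compound-treated A431 cells was measured with a Cell Counting Kit-8. Each well received 10 μL of CCK-8 after 72 h of compound exposure, followed by 4 h incubation at 37° C. and a 450 nm plate-reader measurement. Percent viability was calculated relative to DMSO controls across replicates.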

Assay [4] has as its system A549 (lung adenocarcinoma). Briefly: Antiproliferative activity (CCK-8 cell viability), A549. As to conditions: Homo sapiens, 72 h; for inhibition at 3.3 µM: Compound concentration: 3.3 μM; for inhibition at 10 µM: Compound concentration: 10 μM; for inhibition at 30 µM: Compound concentration: 30 μM. The procedure, abridged:
as §1

Another assay has as its system HeLa (cervical cancer). Description: Antiproliferative activity (CCK-8 cell viability), HeLa. As to conditions: Homo sapiens, 72 h, read-out: Antiproliferative activity in cancerous cells, HELA (inhibition of cell growth); for inhibition at 3.3 µM: Compound concentration: 3.3 μM; for inhibition at 10 µM: Compound concentration: 10 μM; for inhibition at 30 µM: Compound concentration: 30 μM. A digest of the protocol:
as §1

[5] abbreviates: read-out: Antiproliferative activity in cancerous cells, SW480 (inhibition of cell growth).
The mark [6] stands for this setting: read-out: Antiproliferative activity in cancerous cells, SW480.
The mark [7] stands for this setting: read-out: Antiproliferative activity in cancerous cells, A549 (inhibition of cell growth).

Like-named read-outs stand apart in the source and are kept apart here. Where only a bound is given, the exact number is not on record here.

As to `COc1ccc2c(c1)C(CC(=O)O)=C(C)/C2=C/c1ccc(Oc2ccc(Cl)cc2)cc1` [C72, (Z)-2-(1-(4-(4-Chlorophenoxy)benzylidene)-5-methoxy-2-methyl-1H-inden-3-yl)acetic acid], the inhibition at 3.3 µM in assay [1] was 30 to 50%; in the assay on HepG2 (liver cancer) it was below 30%; with SW480 (colon cancer) (setting [5]), below 30%; in assay [2] it was at least 50%; in assay [3] it was 30 to 50%; in assay [4] (setting [7]), below 30%. In the assay with HeLa (cervical cancer), the inhibition at 3.3 µM is at least 50%. Also, the inhibition at 10 µM in assay [1] is 30 to 50%; with HepG2 (liver cancer), below 30%; in the assay on SW480 (colon cancer) (setting [5]), below 30%; in assay [2], at least 50%; in assay [3], 30 to 50%; in assay [4] (setting [7]) it was below 30%. For the same compound, the inhibition at 10 µM in the assay on HeLa (cervical cancer) is at least 50%. Also, the inhibition at 30 µM is below 30% in the assay with SW480 (colon cancer) (setting [6]) and 30 to 50% in assay [4] (read-out: Antiproliferative activity in cancerous cells, A549).

As for `CC1=C(CC(=O)O)c2cc(F)ccc2/C1=C\c1ccc(C(=O)c2cc3ccccc3s2)cc1` [C303, (Z)-2-(1-(4-(Benzo[b]thiophene-2-carbonyl)benzylidene)-5-fluoro-2-methyl-1H-inden-3-yl)acetic acid], the inhibition at 3.3 µM is at least 50% in assay [1]; 30 to 50% in the assay with HepG2 (liver cancer); 30 to 50% in the assay on SW480 (colon cancer) (setting [5]); at least 50% in assay [2]; below 30% in assay [3]; 30 to 50% in assay [4] (setting [7]). Besides, the inhibition at 3.3 µM in the assay on HeLa (cervical cancer) lay in the range of 30 to 50%. Besides, the inhibition at 10 µM (in assay [1]; in the assay with HepG2 (liver cancer); with SW480 (colon cancer) (setting [5]); in assay [2]; in assay [3]; in assay [4] (setting [7])) was at least 50% throughout. In addition, in the assay on HeLa (cervical cancer), the inhibition at 10 µM was at least 50%. In addition, the inhibition at 30 µM (in assay [1]; with HepG2 (liver cancer); with SW480 (colon cancer) (setting [5]); in assay [2]; in assay [3]; in assay [4] (setting [7])) was at least 50% in each case. In the assay on HeLa (cervical cancer), the inhibition at 30 µM was at least 50%.

In the case of `COc1ccc(CCCc2ccc(/C=C3/C(C)=C(CC(=O)O)c4cc(Br)ccc43)cc2)cc1` [B128, (Z)-2-(5-Bromo-1-(4-(3-(4-methoxyphenyl)propyl)benzylidene)-2-methyl-1H-inden-3-yl)acetic acid], the inhibition at 3.3 µM (in assay [1]; in the assay on HepG2 (liver cancer); in the assay with SW480 (colon cancer) (setting [5]); in assay [2]; in assay [3]; in assay [4] (setting [7])) was at least 50% each time. Also, the inhibition at 3.3 µM in the assay with HeLa (cervical cancer) is at least 50%. The inhibition at 10 µM (in assay [1]; in the assay on HepG2 (liver cancer); with SW480 (colon cancer) (setting [5]); in assay [2]; in assay [3]; in assay [4] (setting [7])) was at least 50% throughout. In addition, the inhibition at 10 µM in the assay on HeLa (cervical cancer) is at least 50%.

With `COc1cc(Oc2ccc(Cl)cc2)ccc1/C=C1/C(C)=C(CC(=O)O)c2cc(F)ccc21` [C58, (Z)-2-(1-(4-(4-Chlorophenoxy)-2-methoxybenzylidene)-5-fluoro-2-methyl-1H-inden-3-yl)acetic acid], the inhibition at 3.3 µM is below 30% in assay [1]; at least 50% with HepG2 (liver cancer); below 30% in the assay with SW480 (colon cancer) (setting [5]); at least 50% in assay [2]; at least 50% in assay [3]; at least 50% in assay [4] (setting [7]). For the same compound, the inhibition at 3.3 µM in the assay on HeLa (cervical cancer) is at least 50%. Moreover, the inhibition at 10 µM is below 30% in assay [1]; at least 50% in the assay on HepG2 (liver cancer); below 30% with SW480 (colon cancer) (setting [5]); at least 50% in assay [2]; at least 50% in assay [3]; at least 50% in assay [4] (setting [7]). Besides, the inhibition at 10 µM in the assay on HeLa (cervical cancer) was at least 50%. In addition, the inhibition at 30 µM in the assay on SW480 (colon cancer) (setting [6]) lay within 30 to 50%.

Regarding `COc1ccc(S(=O)(=O)Cc2ccc(/C=C3\C(C)=C(CC(=O)O)c4cc(F)ccc43)cc2)cc1` [E20, (E)-2-(5-Fluoro-1-(4-(((4-methoxyphenyl)sulfonyl)methyl)benzylidene)-2-methyl-1H-inden-3-yl)acetic acid], the inhibition at 3.3 µM is below 30% in assay [1]; 30 to 50% with HepG2 (liver cancer); 30 to 50% in the assay on SW480 (colon cancer) (setting [5]); below 30% in assay [2]; 30 to 50% in assay [3]; below 30% in assay [4] (setting [7]). Besides, the inhibition at 3.3 µM in the assay with HeLa (cervical cancer) was below 30%. Also, the inhibition at 10 µM in assay [1] was 30 to 50%; in the assay with HepG2 (liver cancer) it was at least 50%; in the assay with SW480 (colon cancer) (setting [5]), 30 to 50%; in assay [2], 30 to 50%; in assay [3], at least 50%; in assay [4] (setting [7]), 30 to 50%. Also, the inhibition at 10 µM in the assay with HeLa (cervical cancer) was at least 50%. The inhibition at 30 µM (in assay [1]; with HepG2 (liver cancer); with SW480 (colon cancer) (setting [5]); in assay [2]; in assay [3]; in assay [4] (setting [7])) was at least 50% each time. Moreover, the inhibition at 30 µM with HeLa (cervical cancer) is at least 50%.

For `CCc1ccc2c(c1)C(CC(=O)O)=C(C)/C2=C/c1ccc(CCc2ccccc2)cc1` [B157, (Z)-2-(5-Ethyl-2-methyl-1-(4-phenethylbenzylidene)-1H-inden-3-yl)acetic acid], the inhibition at 3.3 µM in assay [1] was below 30%; in the assay with HepG2 (liver cancer), below 30%; in the assay on SW480 (colon cancer) (setting [5]) it was at least 50%; in assay [2], below 30%; in assay [3], 30 to 50%; in assay [4] (setting [7]), 30 to 50%. For the same compound, the inhibition at 3.3 µM in the assay on HeLa (cervical cancer) was below 30%. For the same compound, the inhibition at 10 µM in assay [1] was below 30%; in the assay on HepG2 (liver cancer) it was at least 50%; in the assay with SW480 (colon cancer) (setting [5]), at least 50%; in assay [2], at least 50%; in assay [3], at least 50%; in assay [4] (setting [7]) it was at least 50%. Also, in the assay on HeLa (cervical cancer), the inhibition at 10 µM is at least 50%.
